The values below come from patent US20110263539A1, “SHIP 1 MODULATOR COMPOUNDS” (THE UNIVERSITY OF BRITISH COLUMBIA, priority 2006, published 2011).

In data set [1] the test system is SHIP+/+ bone marrow derived macrophages. The data set can be described thus: LPS stimulation of SHIP+/+ bone marrow derived macrophages. The class given is cell-based, mice. On the procedure: Bone marrow cells were aspirated from 4 to 8 week old C57B16×129Sv mixed background mice and SHIP and SHIP cells prepared as described previously. Bone marrow derived macrophages from SHIP^+/+ and SHIP^−/− mice were obtained and maintained in IMDM supplemented with 10% FCS, 150 μM MTG, 2% C127 cell conditioned medium as a source of macrophage colony stimulating factor (M-CSF) (macrophage medium)
LPS stimulation of macrophages. For the analysis of LPS-stimulated TNFα production, 2×10^5 cells were plated the night before in 24 well plates in macrophage medium. The next day, the medium was changed and AQX-016A or carrier was added to cells at the indicated concentrations for 30 min prior to the addition of 10 ng/mL LPS. Supernatants were collected for TNFα determination by ELISA (BD Biosciences, Mississauga, ON, Canada). For analysis of intracellular signaling, 2×10^6 cells were plated the night before in 6 cm tissue culture plates. The next day, the cells were cultured in macrophage medium without M-CSF for 1 hr at 37° C. and then pretreated with AQX-016A or carrier for 30 min prior to the addition of 10 ng/mL LPS for 15 min. Cells were washed with 4° C. PBS and resuspended in lysis buffer (50 mM Hepes, 2 mM EDTA, 1 mM NaVO4, 100 mM NaF, 50 mM NaPPi and 1% NP40) supplemented with Complete Protease Inhibitor Cocktail (Roche, Montreal, Canada). Lysates were rocked at 4° C. for 30 min and clarified by centrifuging 20 min at 12000×g. Lysates were then made 1× in Laemmli's buffer, boiled 2 min and loaded onto 7.5% SDS polyacrylamide […]. Immunoblot analysis for phospho PKB (Cell Signalling, Mississauga, Ont), SHIP and actin (Santa Cruz, Santa Cruz, Calif.) were carried out as described previously.
The target specificity and biological efficacy of AQX-016A were assessed by comparing AQX-016A's effects on PI3K-regulated processes in primary SHIP^+/+ vs SHIP^−/− macrophages and mast cells. […] LPS stimulation of macrophages is associated with a PIP3-dependent release of pro-inflammatory mediators such as TNFα. […]

Data set [2] deals with ΔC2 SHIP. Briefly: SHIP enzyme assay with C2 domain deleted SHIP. The class given is biochemical. The note with it: PI-3,4-P2 20 μM or Compound 100 3 μM, 30 μM IP4. From the text:
A His6 tagged SHIP ΔC2 domain deletion mutant (deleting residues 725 to 863) in the mammalian expression vector pME18S was generated by a standard PCR-based methodology. An N-terminal His6 C2 domain construct was also generated by PCR inserted into the pET28C bacterial expression vector using EcoRI and NdeI restriction sites.
The allosteric regulation of enzymes has remained under-appreciated primarily because allosteric effectors are not easy to find. The molecular mechanism by which Compound 100 activated SHIP was investigated, first by performing classical enzyme kinetic analysis of its phosphatase activity. Activity measurements were performed with substrate concentrations from 10-100 μM.
The SHIP protein contains a C2 domain located at the carboxyterminal end of its phosphatase domain. […] SHIP lacking its the C2 domain (ΔC2 SHIP) was prepared.

A short description of data set [3]: Initial toxicology studies. It counts as in vivo. As to conditions: data not shown. From the text:
A novel paradigm for inhibiting PI3K signaling through activation of the phosphatases that negatively regulate this pathway is provided. SHIP is a particularly good target for immune/hematopoietic disorders because of its restricted expression to hematopoietic cells. Because the relative activity of phosphatases present in a cell will influence the efficacy of kinase inhibitors, as discussed by Knight and Shokat, SHIP agonists may also be used to potentiate the activation of PI3K inhibitors and promote tissue targeting of PI3K inhibitors to the ematopoietic/immune cell compartment.

In the case of `Cc1cc(O)cc2c1[C@]1(C)CCC3C(C)(C)CCC[C@]3(C)[C@H]1C2` (stereo partly shown) [Compound 100], the “inhibition of TNFα production, SHIP+/+ vs SHIP−/− macrophages” value in data set [1] (LPS stimulated) is “selectively inhibited”. Besides, the “EC50 for inhibition of TNFα production” value in data set [1] (LPS stimulated SHIP+/+ macrophages) is recorded as “submicromolar”. The “ΔC2 SHIP enzyme activity” value in data set [2] is reported as “could not be enhanced”. Also, the “peripheral blood cell counts or bone marrow progenitor numbers” value in data set [3] was “do not significantly affect”.
